From patent US12208107B2, “Method and compositions for the treatment of anemia through the inhibition of furin” (Brigham Young University, priority 2016, dated 2025)
Residues, ends and D or L forms follow the SMILES beside them.

What was measured:
[1] = test system: HAMP gene expression in Huh7 hepatocytes; assay: HAMP gene expression (RT-qPCR), Huh7; type: cell-based, human; details: IL-6/BMP-9 induced Huh7, 18 hrs; ND 15 μM, CMK 25 μM
Procedure: Cells were seeded at a density of 1.5×10^6 per T25 flask in 5 mL culture medium and allowed to reach 50% confluency. At time 0, the cells received fresh media and were then simultaneously treated with either nelfinavir or darunavir alone, or nelfinavir and darunavir at varying concentrations (2.5/2.5 μM, 5/5 μM and 7.5/7.5 μM) and induced with IL-6 and BMP-9 (10 ng/mL each) for 18 hours. […] Control groups not being induced with cytokines, are designated as ‘Healthy’.
RNA was isolated by washing tissue culture in 1×PBS, before applying QIAzol lysis reagent (Cat #79306). RNA was then purified on RNeasy mini kit columns (Cat #74104) from Qiagen. All samples were treated with Qiagen DNase (Cat #79254). Two micrograms of RNA were used for reverse transcription and subsequent SYBR® Green ROX real time PCR for the genes of interest. Reverse transcription kits (Cat #330401) and SYBR Green real-time PCR master mixes (Cat #330523) were from Qiagen (Louisville, KY). […]
Real time quantitative PCR was performed on an Applied Biosciences StepOne plus instrument and analyzed with StepOne software v2.3. The relative amounts of transcripts from each gene were normalized to reference gene GAPDH and calculated as follows: ΔΔCT=the average ΔCT of sample B−the average ΔCT of sample B, and their fold difference=2−^ΔΔCT.

[2] = test system: hepcidin-25 in Huh7 cell media; assay: Hepcidin-25 quantification in Huh7 cell media by mass spectrometry; type: cell-based, human; details: IL-6/BMP-9 10 ng/mL each, 18 hrs; ND 15 μM (7.5 μM each), CMK 25 μM
Procedure: Detection of Hepcidin-25 isoform was completed using an HPLC-MS/MS method with an Eksigent NanoLC HPLC with a Thermo Scientific C-18 reverse-phase column coupled via Thermo Scientific Nanospray ESI soft ionization source to a Thermo Scientific LTQ/Orbitrap XL mass spectrometer (MS). Samples were prepared for MS using an in-house developed enrichment and purification protocol. […]
The mass spectrometer was tuned and calibrated to a pure human recombinant hepcidin-25 solution. […] Peaks with isotopic envelopes corresponding to [M+5H+] and [M+6H+], 651.8 m/z and 543.3 m/z for 2-iodoacetamide, 818.5 m/z and 682.2 m/z for 2-iodo-N-(phenylethyl)-acetamide respectively, were detected in all samples and were not observed in the protocol blank. […] Quantification was completed using in-house developed ion chromatogram extractor software that allowed positive isolation of unfragmented peaks by m/z and chromatographic elution windows for total spectral ion count summation. Samples were intensity normalized to hepcidin-25 detected in healthy culture media for each dataset.
Sample preparation consisted of three phases: 1) ultra-filtration to remove large abundant proteins and media debris; 2) earboxamidomethylation of cysteine residues; and 3) 2-phase extraction of lipid substituents and subsequent concentration by speed-vac. […] Data was recorded at a resolution of 100,000 over the course of a two-hour method. Detected intensities were totaled using in-house developed ion-chromatogram extractor software. […]

[3] = biological target: T1, Recombinant human furin (Homo sapiens, UniProt P09958); assay: In vitro fluorogenic furin activity assay; type: biochemical; details: fluorogenic substrate BOC-Arg-Val-Arg-Arg-AMC, FIG. 9 / FIG. 22
T1 construct: purchased New England BioLabs (Ipswich, MA)
T1 sequence (P09958 108-794): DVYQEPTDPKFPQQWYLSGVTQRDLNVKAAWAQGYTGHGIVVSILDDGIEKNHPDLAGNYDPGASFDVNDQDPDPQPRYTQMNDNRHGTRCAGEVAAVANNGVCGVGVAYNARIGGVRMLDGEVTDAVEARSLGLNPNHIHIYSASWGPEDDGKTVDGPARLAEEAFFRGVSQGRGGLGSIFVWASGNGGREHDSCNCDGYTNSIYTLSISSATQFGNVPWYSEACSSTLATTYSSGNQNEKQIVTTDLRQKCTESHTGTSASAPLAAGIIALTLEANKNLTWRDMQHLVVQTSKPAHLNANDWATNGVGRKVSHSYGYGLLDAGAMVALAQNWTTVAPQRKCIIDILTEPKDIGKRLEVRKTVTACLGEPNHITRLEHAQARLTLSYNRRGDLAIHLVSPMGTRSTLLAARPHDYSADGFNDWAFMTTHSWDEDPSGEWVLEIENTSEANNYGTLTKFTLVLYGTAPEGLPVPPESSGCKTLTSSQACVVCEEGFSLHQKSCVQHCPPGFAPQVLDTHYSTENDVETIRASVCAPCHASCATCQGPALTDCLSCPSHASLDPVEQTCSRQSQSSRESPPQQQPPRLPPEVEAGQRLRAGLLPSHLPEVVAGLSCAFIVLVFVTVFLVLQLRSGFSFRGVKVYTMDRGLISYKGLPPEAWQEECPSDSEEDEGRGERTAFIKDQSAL
Procedure: Recombinant human furin was purchased from New England BioLabs (Ipswich, MA). Fluorogenic furin convertase substrate BOC-Arg-Val-Arg-Arg-AMC (AMC=7-Amino-4-methylcoumarin) from Enzo Life Sciences (Farmingdale, NY) and HIV aspartyl protease inhibitors (Sigma) were dissolved in DMSO. Protease inhibitory′ drugs were prepared at a. concentration of 10 mg/mL and stored at room temperature. Furin Inhibitor II chloromethylketone was purchased from EMD Millipore (Darmstadt, Germany).
The assay was performed at pH 7.5 in buffer 50 mM HEPES, 1 mM CaCl2, 1 mM β-mercaptoethanol, 0.2 mg/mL BSA. In a total volume of 100 μL, the final concentration per well of substrate enzyme was 10 μM and 1 U/well respectively. All assays were performed at 37° C. in a 96-well fluorometer (BioTek Synergy H4 Hybrid reader) with an excitation wavelength of 345 nm and an emission wavelength of 420 nm.
Inhibitory small molecules were incubated with enzyme for 1 hour at 37° C. prior to addition of substrate to initiate the reaction. All assays were performed in triplicate. Inhibition constants were calculated based on methods previously described (Lineweaver, H. & Burk, D. The Determination of Enzyme Dissociation Constants. J. Am. Chem. Soc. 56, 658-666 (1934)). […]
The molecular docking studies predicted that PIs bind to the catalytic site of furin as well as to a putative allosteric site on furin (FIGS. 7A and 7B). A fluorescence assay was used to monitor furin activity. Furin has substrate specificity for the multi-basic consensus amino-acid sequence of Arg-X-Lys/Arg-Arg (RXRR) at the cleavage site, where X represents a neutral, polar amino acid. Peptide substrates including the furin cleavage sequence having an attached fluorescent tag were used. A fluorescence tag is quenched when it is attached to the peptide, but when furin cleaves the peptide the fluorophore is released and is able to fluoresce. The inhibitory effect of the PIs in this assay can be characterized through a positive control, in which furin actively cleaves substrate without the presence of an inhibitor.

[4] = test system: ferroportin in HepG2 cells; assay: Ferroportin Western blot, HepG2; type: cell-based, human; details: HepG2, IL-6/BMP-9 10 ng/mL each; ND 15 μM, CMK 25 μM
Procedure: (§1) Cells were seeded at a density of 1.5×10^6 per T25 flask in 5 mL culture medium and allowed to reach 50% confluency. At time 0, the cells received fresh media and were then simultaneously treated with either nelfinavir or darunavir alone, or nelfinavir and darunavir at varying concentrations (2.5/2.5 μM, 5/5 μM and 7.5/7.5 μM) and induced with IL-6 and BMP-9 (10 ng/mL each) for 18 hours. After 18 hours, 2 mL of media were collected, aliquoted and flash frozen for mass spectrometry (MS) analysis. Control groups not being induced with cytokines, are designated as ‘Healthy’.
After treatments, cultured cells were washed with ice-cold PBS and lysed by adding ice-cold RIP A buffer containing 50 mM Tris-HCl (pH 8), 150 mM NaCl, 1% Triton X-100, 0.5% sodium deoxycholate, 0.1% SDS, 5 mM EDTA and IX protease/phosphatase cocktail inhibitor (Thermo Fisher Scientific, Waltham, MA), Cells were scraped off the flask and were further disrupted by passing the solution through a 21 gauge needle. The extracts were then transferred to a microfuge tube and centrifuged for 20 min at 12000 rpm. Protein concentration was determined with a Lowry assay and equal amounts of the resulting protein (30 μg) were separated by 8% SDS-PAGE and then transferred to a nitrocellulose membrane (Bio-Rad). […]

[5] = test system: prohepcidin in Huh7 cell media; assay: Prohepcidin secretion into Huh7 cell media; type: cell-based, human
Procedure: as §1

CCCCCCCCCC(=O)N[C@@H](CCCN=C(N)N)C(=O)N[C@H](C(=O)N[C@@H](CCCCN)C(=O)N[C@@H](CCCN=C(N)N)C(=O)CCl)C(C)C [Dec-RVKR-CMK] (HELM PEPTIDE1{[CCCCCCCCCC(=O)[*:2]].R.V.K.R.[ClC[*:1]]}$$$$V2.0)
HAMP gene expression [1]: this phenomenon was not observed
hepcidin-25 in media of cytokine-induced cells [2]: statistically significant drop in mature hepcidin-25 is not observed
inhibition of furin activity in the drug screen [3]: full inhibition of furin
increase of ferroportin expression compared to IL-6/BMP-9 control [4]: 109%
prohepcidin in media of cytokine-induced cells (in words) ([5]; IL-6/BMP-9 10 ng/mL each, 18 hr, ND 7.5 μM each, CMK 25 μM): significantly raised
secreted prohepcidin concentration, healthy cell groups ([5]; no cytokine induction): No significant difference
